# In patent publication US4159328A, “Tetrahydro-1,3,5-thiadiazin-4-one derivative” (Nihon Nohyaku Co., Ltd., priority 1977, dated 1979):
# Legend:
# Type in all cases: in vivo
# [1] = system: larvae of brown planthopper (Nilaparvata lugens Stahl); experiment: Test Example 1: insecticidal activity against larvae of brown planthopper; settings: 120 h, third-instar larvae, 25° C., 5 days after treatment
# Method: Insecticidal activity against larvae of brown planthopper (Nilaparvata lugens Stahl).
# (§1) Testing method: Five rice seedlings of the 1.5 leaf age were dipped in a test composition of 400 ppm concentration for 30 seconds. After air-drying, the seedlings were placed in a glass tube containing 1 ml of water and infested with five third-instar larvae of brown planthopper. The glass tube was left standing in a constant temperature cabinet at 25° C. and 5 or 7 days after the treatment, dead-and-survival was observed. Mortality was calculated from the results of 3-replication test.
# [2] = system: larvae of house mosquito (Culex pipiens pallens Coquillett); experiment: Test Example 6: insecticidal activity to larvae of house mosquito; settings: 120 h
# Method: Insecticidal activity to larvae of house mosquito (Culex pipiens pallens Coquillett).
# Test method: In a 200-ml beaker, was placed together with a feed 100 ml of a test composition diluted with deionized water to 10 ppm concentration. The test composition was infested with 20 first-instar larvae of house mosquito and the beaker was covered with a sheet of Japanese paper. The beaker was kept in a constant temperature cabinet at 25° C. Five days after the treatment, the dead-and-survival was inspected to calculate the mortality.
# [3] = system: two-spotted spider mite (Tetranychus urticae Koch); experiment: Test Example 3: activity to two-spotted spider mite; settings: 120 h, 1,000 ppm, 5 days after treatment
# Source text: Activity to two-spotted spider mite (Tetranychus urticae Koch).
# Testing method: Two-spotted spider mites were set free on the pot-planted soybean in a greenhouse. On the next day, a test composition of 1,000 ppm concentration was sprayed over the soybean by means of a spray gun. Two days or five days after the treatment, dead-and-survival was inspected to calculate the mortality.
# [4] = system: larvae of green rice leafhopper (Nephotettix cincticeps Uhler); experiment: Test Example 5: activity against larvae of green rice leafhopper; settings: 168 h, 400 ppm, second-instar larvae, 25° C., seven days after treatment, read-out: Mortality
# Method: Activity against larvae of green rice leafhopper (Nephotettix cincticeps Uhler).
# Testing method: Five rice seedlings of the 1.5 leaf age were dipped in a test composition of 400 ppm concentration for 30 seconds. After air-drying, the seedlings were placed in a glass tube containing 1 ml of water and infested with five second-instar larvae of green rice leafhopper. The glass tube was left standing in a constant temperature cabinet at 25° C. Seven days after the treatment, dead-and-survivalwas inspected to calculate the mortality (3-replication test).
# [5] = system: larvae of white-backed planthopper (Sogatella furcifera Horvath); experiment: Test Example 2: insecticidal activity against larvae of white-backed planthopper; settings: 168 h, 400 ppm, first-instar larvae, 25° C., seven days after treatment, read-out: Mortality
# Method: Insecticidal activity against larvae of white-backed planthopper (Sogatella furcifera Horvath).
# as §1, with “first-instar” for “third-instar”, “white-backed” for “brown”, “seven” for “5 or 7”
SMILES,mortality at 400 ppm [1],mortality at 10 ppm [2],mortality at 1000 ppm [3],mortality at 400 ppm [4],mortality at 400 ppm [5]
"Cc1ccccc1N1CSC(=NC2CCCCC2)N(C2CCCCC2)C1=O [Compound 307, 2-cyclohexylimino-3-cyclohexyl-5-(o-tolyl)-tetrahydro-1,3,5-thiadiazin-4-one]",70%,100%,70%,–,–
CCC(C)N=C1SCN(c2ccccc2Cl)C(=O)N1C(C)CC (centres unmarked) [Compound 248],100%,90%,100%,100%,–
CC(C)N=C1SCN(c2cccc(C(F)(F)F)c2)C(=O)N1C [Compound 259],60%,100%,100%,–,–
CCN=C1SCN(c2ccccc2)C(=O)N1CC [Compound 125],–,80%,–,–,–
CCN1C(=O)N(c2ccc(F)cc2)CSC1=NC(C)(C)C [Compound 280],100%,90%,80%,–,–
Cc1ccc(N2CSC(=NC(C)C)N(Cc3ccccc3)C2=O)cc1 [Compound 320],100%,70%,70%,–,–
CC(C)N1C(=O)N(c2cccc(C(F)(F)F)c2)CSC1=NC(C)(C)C [Compound 270],60%,100%,70%,–,–
CCC(C)N1C(=O)N(c2cccc(C(F)(F)F)c2)CSC1=NC(C)(C)C (centres unmarked) [Compound 274],100%,100%,100%,–,–
"CC(C)N=C1SCN(c2cccc(C(F)(F)F)c2)C(=O)N1C(C)C [Compound 265, 2-Isopropylimino-3-isopropyl-5-(m-trifluoromethylphenyl)-tetrahydro-1,3,5-thiadiazin-4-one]",–,100%,–,–,–
"CC(C)N1C(=O)N(c2ccc(Cl)cc2)CSC1=NC(C)(C)C [Compound 196, 2-t-Butylimino-3-isopropyl-5-(p-chlorophenyl)-tetrahydro-1,3,5-thiadiazin-4-one]",100%,–,100%,–,90%
C=CCN1C(=O)N(c2ccc(C)cc2)CSC1=NC(C)C [Compound 315],100%,100%,100%,–,–
"CCC(C)N1C(=O)N(c2cccc(Cl)c2)CSC1=NC(C)(C)C (centres unmarked) [Compound 225, 2-t-Butylimino-3-s-butyl-5-(m-chlorophenyl)-tetrahydro-1,3,5-thiadiazin-4-one]",100%,100%,100%,90%,100%
"Cc1ccc(N2CSC(=NCc3ccccc3)N(Cc3ccccc3)C2=O)cc1 [Compound 321, 2-Benzylimino-3-benzyl-5-(p-tolyl)-tetrahydro-1,3,5-thiadiazin-4-one]",85%,70%,70%,–,–
Cc1ccccc1N1CSC(=NCc2ccccc2)N(Cc2ccccc2)C1=O [Compound 308],60%,100%,100%,–,–
CCC(C)N=C1SCN(c2cccc(C(F)(F)F)c2)C(=O)N1C(C)C (centres unmarked) [Compound 269],80%,100%,–,–,–
CCCN1C(=O)N(c2ccc(C)cc2)CSC1=NC(C)(C)C [Compound 317],100%,100%,100%,–,–
"CN=C1SCN(c2ccc(Cl)cc2)C(=O)N1C [Compound 188, 2-Methylimino-3-methyl-5-(p-chlorophenyl)tetrahydro-1,3,5-thiadiazin-4-one]",100%,100%,90%,100%,–
CCC(C)N=C1SCN(c2ccc(Cl)cc2)C(=O)N1C(C)CC (centres unmarked) [Compound 197],100%,100%,80%,–,90%
C=CCN1C(=O)N(c2ccccc2Cl)CSC1=NC(C)C [Compound 242],100%,–,70%,–,–
"CCc1cccc(CC)c1N1CSC(=NC(C)C)N(C(C)C)C1=O [Compound 395, 2-Isopropylimino-3-isopropyl-5-(2,6-diethylphenyl)-tetrahydro-1,3,5-thiadiazin-4-one]",100%,100%,80%,100%,90%
C=CCN1C(=O)N(c2ccccc2C)CSC1=NC(C)(C)C [Compound 300],100%,–,90%,–,–

SMILES,mortality at 400 ppm [1],mortality at 10 ppm [2],mortality at 1000 ppm [3],mortality at 400 ppm [4],mortality at 400 ppm [5]
"Cc1cc(Cl)ccc1N1CSC(=NC(C)(C)C)N(C(C)C)C1=O [Compound 387, 2-t-butylimino-3-isopropyl-5-(2-methyl-4-chlorophenyl)-tetrahydro-1,3,5-thiadiazin-4-one]",100%,–,100%,–,–
Cc1cccc(N2CSC(=NC(C)C)N(C(C)C)C2=O)c1C [Compound 383],100%,–,100%,–,–
"Cc1ccccc1N1CSC(=NC(C)C)N(C(C)C)C1=O [Compound 301, 2-Isopropylimino-3-isopropyl-5-(o-tolyl)-tetrahydro-1,3,5-thiadiazin-4-one]",100%,90%,100%,–,–
CCC(C)N1C(=O)N(c2ccc(Br)cc2)CSC1=NC(C)(C)C (centres unmarked) [Compound 295],100%,–,100%,–,–
CCN1C(=O)N(c2ccc(C)cc2)CSC1=NC(C)(C)C [Compound 312],100%,100%,100%,–,–
CCC(C)N1C(=O)N(c2cc(Cl)ccc2Cl)CSC1=NC(C)(C)C (centres unmarked) [Compound 428],100%,–,100%,–,–
CC(C)N=C1SCN(c2ccccc2Cl)C(=O)N1Cc1ccco1 [Compound 255],100%,–,100%,–,–
CC(C)N=C1SCN(c2ccc(Cl)c(Cl)c2)C(=O)N1C(C)C [Compound 415],100%,–,100%,–,–
CCOc1ccc(N2CSC(=NC(C)(C)C)N(C(C)C)C2=O)cc1 [Compound 367],80%,–,100%,–,–
CCc1ccccc1N1CSC(=NC(C)C)N(C(C)C)C1=O [Compound 337],100%,–,100%,–,–
C=CCN1C(=O)N(c2ccc(Cl)c(Cl)c2)CSC1=NC(C)C [Compound 421],60%,–,70%,–,–
CC(C)N1C(=O)N(c2ccccc2Cl)CSC1=NC(C)(C)CC(C)(C)C [Compound 247],90%,100%,70%,–,–
CC(C)N=C1SCN(c2ccc(Cl)cc2)C(=O)N1C(C)C [Compound 194],100%,80%,100%,100%,–
CC(C)N1C(=O)N(c2cc(Cl)cc(Cl)c2)CSC1=NC(C)(C)CC(C)(C)C [Compound 409],60%,–,100%,–,–
"Cc1ccc(N2CSC(=NC(C)C)N(C)C2=O)c(C)c1 [Compound 377, 2-Isopropylimino-3-methyl-5-(2,4-dimethyl-phenyl)-tetrahydro-1,3,5-thiadiazin-4-one]",100%,–,100%,–,–
CCC(C)N=C1SCN(c2ccccc2)C(=O)N1CC (centres unmarked) [Compound 130],–,–,–,100%,–
CCN=C1SCN(c2cccc(C(F)(F)F)c2)C(=O)N1CC [Compound 260],60%,–,100%,–,–
CC(C)N1C(=O)N(c2ccc(Br)cc2)CSC1=NC(C)(C)C [Compound 294],100%,–,100%,–,–
CCN1C(=O)N(c2cc(Cl)ccc2Cl)CSC1=NC(C)(C)C [Compound 426],70%,–,100%,–,–
"CC(C)N=C1SCN(c2ccc(Br)cc2)C(=O)N1C(C)C [Compound 293, 2-Isopropylimino-3-isopropyl-5-(p-bromophenyl)-tetrahydro-1,3,5-thiadiazin-4-one]",100%,–,100%,–,–
